The test system of one data set is Salmonella typhi. As to the kind of experiment: Disc diffusion antibacterial assay. The class given is cell-based. Conditions: Salmonella enterica, read-out: Diameter of Zone of Inhibition.
A further data set has as its system Staphylococcus aureus. Put plainly: Disc diffusion antibacterial assay. Conditions: read-out: Diameter of Zone of Inhibition.
The test system of the next data set is Sarcina lutea. Put plainly: Disc diffusion antibacterial assay. Conditions: Micrococcus luteus, read-out: Diameter of Zone of Inhibition.
A further data set relates to Klebsiella spp. Put plainly: Disc diffusion antibacterial assay. As to conditions: read-out: Diameter of Zone of Inhibition.
In a further data set the test system is Escherichia coli. Put plainly: Disc diffusion antibacterial assay. As to conditions: read-out: Diameter of Zone of Inhibition.
The subject of a further data set is Shigella flexneri. As to the kind of experiment: microbe, parasite or virus in culture. As to conditions: read-out: Diameter of Zone of Inhibition.
A short description of data set [1]: Brine shrimp lethality bioassay (cytotoxicity). Conditions: in vivo, other: exposure of nauplii in simulated seawater, pH 8, from linear regression, 400–0.78125 μg/mL. As for the experimental part: The brine shrimp lethality bioassay was conducted to evaluate the cytotoxic potential of the isolated pure compounds. An amount of 38 g of NaCl salt was dissolved in 1000 mL of distilled water to simulate seawater, along with NaOH to keep the pH constant (8.0). Brine shrimp eggs were hatched in artificial seawater to produce nauplii. Isolated compounds were dissolved in DMSO then diluted with simulated seawater into a series of concentrations (400–0.78125 μg/mL). As the reference standard, vincristine sulfate was employed at various doses (400–0.78125 μg/mL), and DMSO served as the negative control. The nauplii were counted visually, and then 5 mL of simulated saltwater was added to vials of the mixture at room temperature. (2) Mortality%=Number of nauplii death/Number of nauplii taken×100

Data set [2] in a line: DPPH free radical scavenging assay. Conditions: for DPPH scavenging activity: at 200 μg/mL; for IC50, DPPH free radical scavenging: from linear regression equation, 200 to 0.78125 μg/mL, 1 h in dark. The format is biochemical. As for the experimental part: To evaluate the free radical scavenging abilities of isolated phytochemicals on 1, 1-diphenyl-2-picrylhydrazyl, 2.0 mL of methanol solution of the compounds at serially diluted various concentrations (200 μg/mL to 0.78125 μg/mL) were mixed with 3.0 mL of a DPPH methanol solution (20 μg/mL) (DPPH). The mixture was kept in dark for 1 h. The antioxidant properties were assessed by comparing the decolorizing of a purple DPPH methanol solution by the compounds to that of butylated hydroxy anisole (BHA). (1) % Inhibition of free radical DPPH=1−Absorbance ofsample/Absorbance of the control reaction×100

Data set [3] concerns two Gram-positive and four Gram-negative bacteria. Put plainly: Disc diffusion antibacterial assay, whole panel. The format is cell-based. As to conditions: 100 μg/disc.

Converted amounts (≈) assume the structure as drawn. “Also recorded” adds a separate entry of the source.

For `CN[C@H](CC(C)C)C(=O)N[C@H]1C(=O)N[C@@H](CC(N)=O)C(=O)N[C@H]2C(=O)N[C@H]3C(=O)N[C@H](C(=O)N[C@H](C(=O)O)c4cc(O)cc(O)c4-c4cc3ccc4O)[C@H](O)c3ccc(c(Cl)c3)Oc3cc2cc(c3O[C@@H]2O[C@H](CO)[C@@H](O)[C@H](O)[C@H]2O[C@H]2C[C@](C)(N)[C@H](O)[C@H](C)O2)Oc2ccc(cc2Cl)[C@H]1O` [Vancomycin], the zone of inhibition at 100 µg/disc in the data set with Salmonella typhi was 39 mm; in the data set with Staphylococcus aureus, 41 mm; in the data set on Sarcina lutea, 42 mm; with Klebsiella spp., 43 mm; in the data set with Escherichia coli, 42 mm; in the data set with Shigella flexneri, 38 mm.

As for `CC[C@]1(O)C[C@H]2CN(CCc3c([nH]c4ccccc34)[C@@](C(=O)OC)(c3cc4c(cc3OC)N(C=O)[C@H]3[C@@](O)(C(=O)OC)[C@H](OC(C)=O)[C@]5(CC)C=CCN6CC[C@]43[C@@H]65)C2)C1` [VS, Vincristine Sulphate], the LC50 in [1] is 0.91 µg/mL.

`Cc1cc(C(C)(C)C)c(O)c(C(C)(C)C)c1` [BHT, Butylated Hydroxytoluene]: in [2], the DPPH scavenging activity was 96.48% and the “IC50, DPPH free radical scavenging” value is given as 6.06 µg/mL (≈ 27.5 µM).

`Cc1c[nH]c2ccccc12` [Compound 2, 3-methyl-1H-indole]: in data set [2], the “IC50, DPPH free radical scavenging” value came to 12.37 µg/mL (≈ 94.3 µM). This molecule also displayed an LC50 in [1] of 1.02 µg/mL (≈ 7.78 µM). The “antibacterial spectrum (in words)” value in data set [3] is given as “the most active against Staphylococcus aureus; also recorded: inhibited only Gram-positive bacteria”. The zone of inhibition at 100 µg/disc was found to be 17 mm in the data set with Staphylococcus aureus and 19 mm in the data set with Sarcina lutea.

Consider `C[C@H]1COc2c(N3CCN(C)CC3)c(F)cc3c(=O)c(C(=O)O)cn1c23` [Levofloxacin], for which the zone of inhibition at 100 µg/disc turned out to be 36 mm in the data set on Salmonella typhi; 40 mm in the data set on Staphylococcus aureus; 39 mm with Sarcina lutea; 38 mm in the data set with Klebsiella spp.; 42 mm in the data set on Escherichia coli; 41 mm in the data set with Shigella flexneri.

As to `CC[C@H](CC[C@@H](C)[C@H]1CC[C@H]2[C@@H]3CC=C4C[C@@H](O)CC[C@]4(C)[C@H]3CC[C@]12C)C(C)C` [Compound 5, β-sitosterol], the 50% lethal concentration (LC50) in [1] is 1.37 µg/mL (≈ 3.3 µM). In [3], the “antibacterial spectrum (in words)” value is “inhibited only Gram-positive bacteria”. The values for the zone of inhibition at 100 µg/disc with Staphylococcus aureus and in the data set on Sarcina lutea were 17 mm and 15 mm, respectively.

Molecule `CC[C@H](/C=C/[C@@H](C)[C@H]1CC[C@H]2[C@@H]3CC=C4C[C@@H](O)CC[C@]4(C)[C@H]3CC[C@]12C)C(C)C` [Compound 4, Stigmasterol] yielded an LC50 in [1] of 1.92 µg/mL (≈ 4.65 µM). Also, the “antibacterial spectrum (in words)” value in [3] was “inhibited only Gram-positive bacteria”. For the same molecule, the zone of inhibition at 100 µg/disc came to 16 mm in the data set with Staphylococcus aureus and 17 mm in the data set on Sarcina lutea.

In the case of `CN(C)[C@@H]1C(O)=C(C(N)=O)C(=O)[C@@]2(O)C(O)=C3C(=O)c4c(O)cccc4[C@@](C)(O)[C@H]3C[C@@H]12` [Tetracycline], the zone of inhibition at 100 µg/disc in the data set on Salmonella typhi worked out at 41 mm; in the data set with Staphylococcus aureus, 37 mm; with Sarcina lutea, 38 mm; in the data set with Klebsiella spp. it was 39 mm; in the data set on Escherichia coli, 41 mm; in the data set with Shigella flexneri it was 38 mm.

For `COc1cc(CC(C)CO)ccc1O` (stereo not drawn) [Compound 1, 4-(3-hydroxy-2-methylpropyl)-2-methoxyphenol], in [2], the DPPH scavenging activity is 92.96%. Further, the “IC50, DPPH free radical scavenging” value in [2] amounted to 9.97 µg/mL (≈ 50.8 µM). The LC50 in data set [1] was 1.08 µg/mL (≈ 5.5 µM). The zone of inhibition at 100 µg/disc with Salmonella typhi is 18 mm; in the data set on Staphylococcus aureus it was 21 mm; in the data set on Sarcina lutea it was 20 mm; with Escherichia coli, 19 mm. For the same molecule, the “antibacterial spectrum (in words)” value in [3] is listed as “broad-spectrum antibacterial activity”.

Turning to `CC[C@H]1OC(=O)[C@H](C)[C@@H](O[C@H]2C[C@@](C)(OC)[C@@H](O)[C@H](C)O2)[C@H](C)[C@@H](O[C@@H]2O[C@H](C)C[C@H](N(C)C)[C@H]2O)[C@](C)(O)C[C@@H](C)CN(C)[C@H](C)[C@@H](O)[C@]1(C)O` [Azithromycin], the zone of inhibition at 100 µg/disc came to 34 mm with Salmonella typhi; 39 mm in the data set on Staphylococcus aureus; 40 mm with Sarcina lutea; 37 mm in the data set on Klebsiella spp.; 40 mm in the data set with Escherichia coli; 41 mm in the data set on Shigella flexneri.

Values taken from publication PMC9503977, “Isolation, Characterization and Pharmacological Investigations of a New Phenolic Compound along with Four Others Firstly Reported Phytochemicals from Glycosmis cyanocarpa (Blume) Spreng” (Molecules, 2022).
